Where two headings read alike, the source gives them in different places.
Assays:
[1] = tested on: RPE-Neo or RPE-MYC or RPE-MYC expressing an EGFP-Histone 2B fusion protein; experiment: Phenotypic screening assay (arrest in mitosis or change in DNA content, IN-Cell Analyzer); type: cell-based; conditions: compounds at 20 nM to 20 μM, analysed 24, 48 or 72 hours after initiation of treatment
Procedure: (§1) Screening was conducted as described before (Li et al. 2019). Briefly, RPE-Neo or RPE-MYC or RPE-MYC expressing an EGFP-Histone 2B fusion protein were passaged as batches of 96-well plates, 18-24 hours before exposure to the chemical compounds of the present disclosure at concentrations from 20 nM to 20 μM. At 24, 48 or 72 hours after initiation of treatment, cells were analyzed for either an arrest in mitosis or a change in DNA content by GE 1N-Cell Analyzer 2000. MTT assays of cellular proliferation were performed as previously described (Li et al. 2019).
(§2) As set forth in table 2 below, an values of greater than or equal to 1 nM and less than or equal to 1.0 μM is marked “A”; a value greater than 1.00 μM and less than or equal to 10.0 μM is marked “B”; a value greater than 10.0 μM and less than or equal to 30.0 μM is marked “C”; and a value greater than 30.0 μM and less than 1000 μM is marked “D.”

RPE-Neo or RPE-MYC cells = experiment: MTT assay of cellular proliferation; type: cell-based; conditions: compounds at 20 nM to 20 μM; read-out: Min. Effective conc. for Proliferative arrest (>50%)
Procedure: Human cancer cell lines were obtained from ATCC and cultured in DMEM (Gibco, Cleveland. TN, USA) supplemented with 5% fetal bovine serum (Gibco), penicillin (100 U/mL)-streptomycin (100 μg/mL) (Gibco, Cat. No. 15140-122), 2 mM L-glutamine (Gibco, 200 mM solution, Cat. No. 25030081), and 1 mM sodium pyruvate (Gibco, 100 mM solution, Cat. No. 11360070) at 37° C. in a humidified incubator that was maintained at 5% CO2.
as §1, §2

[2] = read-out: Min. Effective conc. for Along with Cell Death
[3] = read-out: Min. Effective conc. for Mitotic Arrest (>5%)
[4] = read-out: Min. Effective conc. for Polyploidy (≥5%)

Measured: minimal effective concentration

Cc1ccc(CN2C(=O)CC(C=O)=C(Cl)c3ccccc32)cc1F [Compound 7-1, 5-chloro-1-(3-fluoro-4-methylbenzyl)-2-oxo-2,3-dihydro-1H-benzo[b]azepine-4-carbaldehyde]
0.001 to 1 µM: [1]; [2] | [1]; [3] | [1]; [4] | RPE-Neo or RPE-MYC cells

Cc1ccc(CN2C(=O)CC(c3cnco3)=C(Cl)c3ccccc32)cc1F [Compound 8-1, 5-chloro-1-(3-fluoro-4-methylbenzyl)-4-(oxazol-5-yl)-1,3-dihydro-2H-benzo[b]azepin-2-one]
0.001 to 1 µM: [1]; [2] | [1]; [3] | [1]; [4] | RPE-Neo or RPE-MYC cells

Cc1ccc(CN2C(=O)CC(c3cnco3)=C(Br)c3ccccc32)cc1F [Compound 8-2, 5-bromo-1-(3-fluoro-4-methylbenzyl)-4-(oxazol-5-yl)-1,3-dihydro-2H-benzo[b]azepin-2-one]
0.001 to 1 µM: [1]; [2] | [1]; [3] | [1]; [4] | RPE-Neo or RPE-MYC cells

Cc1ccc(CN2C(=O)CC(c3cnco3)=C(Br)c3ccc(Br)cc32)cc1F [Compound 8-3, 5,8-dibromo-1-(3-fluoro-4-methylbenzyl)-4-(oxazol-5-yl)-1,3-dihydro-2H-benzo[b]azepin-2-one]
0.001 to 1 µM: [1]; [2] | [1]; [3] | [1]; [4] | RPE-Neo or RPE-MYC cells

Cc1ccc(CN2C(=O)CC(c3cnco3)=C(Cl)c3ccc(C#N)cc32)cc1F [Compound 8-4, 5-chloro-1-(3-fluoro-4-methylbenzyl)-4-(oxazol-5-yl)-2-oxo-2,3-dihydro-1H-benzo[b]azepine-8-carbonitrile]
0.001 to 1 µM: [1]; [2] | [1]; [3] | [1]; [4] | RPE-Neo or RPE-MYC cells

COc1ccc2c(c1)N(Cc1ccc(C)c(F)c1)C(=O)CC(c1cnco1)=C2Cl [Compound 8-5, 5-chloro-1-(3-fluoro-4-methylbenzyl)-8-methoxy-4-(oxazol-5-yl)-1,3-dihydro-2H-benzo[b]azepin-2-one]
0.001 to 1 µM: [1]; [2] | [1]; [3] | [1]; [4] | RPE-Neo or RPE-MYC cells

COc1ccc2c(c1)N(Cc1ccc(C)c(F)c1)C(=O)CC(c1cnco1)=C2Br [Compound 8-6, 5-bromo-1-(3-fluoro-4-methylbenzyl)-8-methoxy-4-(oxazol-5-yl)-1,3-dihydro-2H-benzo[b]azepin-2-one]
0.001 to 1 µM: [1]; [2] | [1]; [3] | [1]; [4] | RPE-Neo or RPE-MYC cells

Cc1ccc(CN2C(=O)CC(c3cnco3)=C(Cl)c3ccc(O)cc32)cc1F [Compound 8-7, 5-chloro-1-(3-fluoro-4-methylbenzyl)-8-hydroxy-4-(oxazol-5-yl)-1,3-dihydro-2H-benzo[b]azepin-2-one]
0.001 to 1 µM: [1]; [2] | [1]; [3] | [1]; [4] | RPE-Neo or RPE-MYC cells

COCCOc1ccc2c(c1)N(Cc1ccc(C)c(F)c1)C(=O)CC(c1cnco1)=C2Cl [Compound 8-9]
0.001 to 1 µM: [1]; [2] | [1]; [3] | [1]; [4] | RPE-Neo or RPE-MYC cells

Cc1ccc(CN2C(=O)CC(c3cnco3)=C(Br)c3ccc(O)cc32)cc1F [Compound 8-10, 5-bromo-1-(3-fluoro-4-methylbenzyl)-8-hydroxy-4-(oxazol-5-yl)-1,3-dihydro-2H-benzo[b]azepin-2-one]
0.001 to 1 µM: [1]; [2] | [1]; [3] | [1]; [4] | RPE-Neo or RPE-MYC cells

Cc1ccc2c(c1)N(Cc1ccc(C)c(F)c1)C(=O)CC(c1cnco1)=C2Br [Compound 8-13, 5-bromo-1-(3-fluoro-4-methylbenzyl)-8-methyl-4-(oxazol-5-yl)-1,3-dihydro-2H-benzo[b]azepin-2-one]
0.001 to 1 µM: [1]; [2] | [1]; [3] | [1]; [4] | RPE-Neo or RPE-MYC cells

COC1=C(c2nc(C)no2)CC(=O)N(Cc2ccc(C)c(F)c2)c2cc(Br)ccc21 [Compound 10-1, 8-bromo-1-(3-fluoro-4-methylbenzyl)-5-methoxy-4-(3-methyl-1,2,4-oxadiazol-5-yl)-1,3-dihydro-2H-benzo[b]azepin-2-one]
0.001 to 1 µM: [1]; [2] | [1]; [3] | [1]; [4] | RPE-Neo or RPE-MYC cells

Cc1ccc(CN2C(=O)CC(c3ccon3)=C(Cl)c3ccccc32)cc1F [Compound 13-1, 5-chloro-1-(3-fluoro-4-methylbenzyl)-4-(isoxazol-3-yl)-1,3-dihydro-2H-benzo[b]azepin-2-one]
0.001 to 1 µM: [1]; [2] | [1]; [3] | [1]; [4] | RPE-Neo or RPE-MYC cells

Cc1ccc(CN2C(=O)CC(c3ccon3)=C(Br)c3ccccc32)cc1F [Compound 13-2]
0.001 to 1 µM: [1]; [2] | [1]; [3] | [1]; [4] | RPE-Neo or RPE-MYC cells

Cc1ccc(CN2C(=O)CC(c3nnc(N)s3)=C(Cl)c3ccccc32)cc1F [Compound 15-1, 4-(5-amino-1,3,4-thiadiazol-2-yl)-5-chloro-1-(3-fluoro-4-methylbenzyl)-1,3-dihydro-2H-benzo[b]azepin-2-one]
0.001 to 1 µM: [1]; [2] | [1]; [3] | [1]; [4] | RPE-Neo or RPE-MYC cells

Cc1ccc(CN2C(=O)CC(c3nnc(N)s3)=C(Br)c3ccccc32)cc1F [Compound 15-2, 4-(5-amino-1,3,4-thiadiazol-2-yl)-5-bromo-1-(3-fluoro-4-methylbenzyl)-1,3-dihydro-2H-benzo[b]azepin-2-one]
0.001 to 1 µM: [1]; [2] | [1]; [3] | [1]; [4] | RPE-Neo or RPE-MYC cells

Cc1noc(C2=C(Br)c3ccccc3N(Cc3ccc(C)c(F)c3)C(=O)C2)n1 [Compound 18-1, 5-bromo-1-(3-fluoro-4-methylbenzyl)-4-(3-methyl-1,2,4-oxadiazol-5-yl)-1,3-dihydro-2H-benzo[b]azepin-2-one]
0.001 to 1 µM: [1]; [2] | [1]; [3] | [1]; [4] | RPE-Neo or RPE-MYC cells

Cc1nnc(C2=C(Cl)c3ccccc3N(Cc3ccc(C)c(F)c3)C(=O)C2)o1 [Compound 20-1, 5-chloro-1-(3-fluoro-4-methylbenzyl)-4-(5-methyl-1,3,4-oxadiazol-2-yl)-1,3-dihydro-2H-benzo[b]azepin-2-one]
0.001 to 1 µM: [1]; [2] | [1]; [3] | [1]; [4] | RPE-Neo or RPE-MYC cells

Cc1nnc(C2=C(Br)c3ccccc3N(Cc3ccc(C)c(F)c3)C(=O)C2)o1 [Compound 20-2, 5-bromo-1-(3-fluoro-4-methylbenzyl)-4-(5-methyl-1,3,4-oxadiazol-2-yl)-1,3-dihydro-2H-benzo[b]azepin-2-one]
0.001 to 1 µM: [1]; [2] | [1]; [3] | [1]; [4] | RPE-Neo or RPE-MYC cells

Cc1ccc(CN2C(=O)CC(c3nnc(C4CC4)o3)=C(Br)c3ccccc32)cc1F [Compound 20-3, 5-bromo-4-(5-cyclopropyl-1,3,4-oxadiazol-2-yl)-1-(3-fluoro-4-methylbenzyl)-1,3-dihydro-2H-benzo[b]azepin-2-one]
0.001 to 1 µM: [1]; [2] | [1]; [3] | [1]; [4] | RPE-Neo or RPE-MYC cells
